How the values were obtained:
Experiment in all cases: 3' UTR reporter interaction score (median-centred robust z-score of log2 firefly/Renilla activity); higher = less repression of the 3' UTR reporter
Conditions in all cases: HEK293T; 48 h
TP53 = system: TP53
How it was run: (§1)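 HEK293T cells were seeded at 10,000 per well in 96-well plates and co-transfected with DharmaFECT Duo, using 100 ng of a firefly luc2P reporter carrying the gene's 3' UTR, 20 ng of Renilla pRL-TK control and 2.5 pmol of miRNA mimic. Both luciferase activities were measured 48 h after transfection. The interaction score is the log-transformed firefly/Renilla ratio, converted to a per-plate robust z-score from the median and median absolute deviation and then median-centred per miRNA, with more negative values indicating interaction. Scores were averaged across at least two independent screens.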

NOTCH1 = system: NOTCH1
How it was run: as §1

RB1 = system: RB1
How it was run: as §1

EZH2 = system: EZH2
How it was run: as §1

MYC = system: MYC
How it was run: as §1

FBXW7 = system: FBXW7
How it was run: as §1

PHOX2B = system: PHOX2B
How it was run: as §1

MYT1L = system: MYT1L
How it was run: as §1

MYCN = system: MYCN
How it was run: as §1

BRCA2 = system: BRCA2
How it was run: as §1

HRAS = system: HRAS
How it was run: as §1

PHF6 = system: PHF6
How it was run: as §1

ZEB2 = system: ZEB2
How it was run: as §1

MYB = system: MYB
How it was run: as §1

| Sequence | 3' UTR reporter interaction score (TP53) | 3' UTR reporter interaction score (NOTCH1) | 3' UTR reporter interaction score (RB1) | 3' UTR reporter interaction score (EZH2) | 3' UTR reporter interaction score (MYC) | 3' UTR reporter interaction score (FBXW7) | 3' UTR reporter interaction score (PHOX2B) | 3' UTR reporter interaction score (MYT1L) | 3' UTR reporter interaction score (MYCN) | 3' UTR reporter interaction score (BRCA2) | 3' UTR reporter interaction score (HRAS) | 3' UTR reporter interaction score (PHF6) | 3' UTR reporter interaction score (ZEB2) | 3' UTR reporter interaction score (MYB) |
| --- | --- | --- | --- | --- | --- | --- | --- | --- | --- | --- | --- | --- | --- | --- |
| AGGAGGCAGCGCUCUCAGGAC | -0.457 | -2.44 | 0.463 | -1.61 | -1.13 | -0.582 | 0.109 | 2.05 | 0.868 | -0.741 | -0.534 | 1.36 | 2.03 | 0.571 |
| AGGCACGGUGUCAGCAGGC | -0.839 | 0.0125 | 0.0845 | 0.629 | 0.509 | 0.393 | 0.32 | 0.478 | -0.274 | -0.203 | -0.153 | 0.283 | -0.659 | 0.171 |
| AGGCAGUGUAGUUAGCUGAUUGC | 0.285 | -3.48 | 0.138 | 1.87 | -1.05 | -0.242 | -1.02 | 0.754 | -5.02 | 0.647 | 1.1 | -2.27 | -0.539 | -4.27 |
| AGGCAGUGUAUUGUUAGCUGGC | 1.19 | -4.34 | -1.56 | -0.179 | -2.42 | 0.842 | 0.369 | 0.156 | -5.92 | 1.59 | 0.697 | -4.67 | 0.15 | -4.72 |
| AGGCGGGGCGCCGCGGGACCGC | -0.353 | 0.236 | 0.467 | -1.53 | -0.234 | -0.475 | -0.317 | -0.425 | -0.386 | -0.123 | -0.439 | 1.42 | 0.258 | -0.412 |
| AGGCUGCGGAAUUCAGGAC | -1.78 | 0.93 | 0.76 | -1.27 | -0.912 | 0.871 | -0.147 | 1.31 | 0.119 | -1.7 | -1.18 | 1.89 | 2.21 | 0.132 |
| AGGGAUCGCGGGCGGGUGGCGGCCU | 0.628 | 0.433 | -0.0484 | -0.298 | -0.321 | -0.971 | -1.25 | -0.194 | -0.927 | 0.916 | -0.484 | 2.46 | -0.0578 | 0.376 |
| AGGGCCCCCCCUCAAUCCUGU | -0.172 | -0.584 | 1.06 | 0.205 | -0.761 | 0.757 | 0.177 | 0.617 | -0.0892 | 0.425 | -0.753 | 0.378 | 1.65 | 0.144 |
| AGGGGGAAAGUUCUAUAGUCCU | -0.601 | -1.57 | 0.755 | -1.49 | -1.56 | 0.691 | 1.33 | -0.154 | 0.426 | -1.55 | 0.225 | 1.82 | 2.84 | 1.55 |
| AGGGGUGGUGUUGGGACAGCUCCGU | 0.0145 | -4.27 | 0.429 | 0.203 | -0.499 | 0.925 | -0.841 | -0.319 | 0.408 | -0.768 | -1.12 | -0.137 | 0.212 | -0.179 |
| AGGGUAAGCUGAACCUCUGAU | 0.182 | -0.542 | -1.03 | -0.149 | -0.643 | 2.4 | 1.64 | 0.432 | 1.35 | 0.0158 | -0.74 | -0.384 | -0.308 | 0.366 |
| AGGGUGUUUCUCUCAUCUCU | 0.571 | -1.24 | -0.774 | -0.619 | 0.84 | -0.794 | 2.27 | -2.32 | 1.22 | -0.403 | 0.396 | 1.32 | -0.283 | 1.44 |
| AGGUUACCCGAGCAACUUUGCA | -1.44 | 0.652 | 2.97 | -1.68 | -0.29 | -1.16 | 2.07 | 2.75 | 0.0957 | -1.98 | -1.62 | 0.436 | 0.562 | 1.71 |
| AGGUUGACAUACGUUUCCC | -0.178 | 1.09 | 0.54 | -0.54 | -0.726 | -0.16 | 0.494 | 0.798 | -0.377 | -0.754 | -1.43 | 0.251 | 1.11 | 0.862 |
| AGUAUGUUCUUCCAGGACAGAAC | 0.258 | -0.607 | 0.243 | 0.482 | 0.576 | 0.574 | -1.01 | -0.575 | -0.169 | -2.15 | 0.113 | -0.447 | 0.181 | 0.712 |
| AGUAUUCUGUACCAGGGAAGGU | 0.107 | 0.758 | -0.386 | -2.56 | 0.255 | 1.75 | 0.0656 | -1.07 | 0.786 | 0.623 | -0.0345 | -1.2 | -1.77 | -0.25 |
| AGUGACAUCACAUAUACGGCAGC | -0.15 | 0.273 | 0.945 | -0.788 | -0.366 | -1.31 | 0.805 | 0.969 | 0.321 | -1.13 | -0.649 | 0.28 | 1.55 | 0.233 |
| AGUGGGGAACCCUUCCAUGAGGA | -3.21 | -0.0192 | 0.472 | -0.974 | -0.465 | 0.423 | -0.69 | -1.79 | 0.0621 | 0.0202 | 0.144 | 0.14 | 1.02 | 0.186 |
| AGUGGUUUUACCCUAUGGUAG | -3.34 | -0.395 | 1.79 | 0.908 | 0.603 | -0.0104 | 1.56 | 1.52 | 0.551 | -2.62 | -0.669 | 1.32 | -0.644 | 2.26 |
